Values of other authors as cited in PMC10866072, “Design, synthesis, molecular modelling and biological evaluation of novel 6-amino-5-cyano-2-thiopyrimidine derivatives as potent anticancer agents against leukemia and apoptotic inducers” (Journal of Enzyme Inhibition and Medicinal Chemistry, 2024).

What was measured:
SW480 = tested on: SW480; design: method as in PMID 32645482; conditions: cited from earlier work
tumour cell lines = tested on: tumour cell lines; design: method as in PMID 32027179; conditions: broad spectrum antitumor activity, cited from earlier work
EGFRWT = tested on: EGFRWT; design: method as in PMID 32959865; conditions: cited from earlier work
[1] = tested on: HCT-116, HepG-2, MCF-7, and A549 cells; design: method as in PMID 32959865; conditions: cited from earlier work
caspase-3 in HepG-2 = tested on: caspase-3 in HepG-2; design: method as in PMID 32959865; conditions: cited from earlier work
mutant EGFRT790M = tested on: mutant EGFRT790M; design: method as in PMID 32959865; conditions: cited from earlier work

For NC1=NC(NC(=O)Nc2ccc(Cl)c(C(F)(F)F)c2)=CC(c2ccccc2)N1 (stereo not shown) [XIX], the IC50 (SW480) is given as 11.1 µM.
In the case of N#CC1=C(c2ccc(F)cc2)N=C(N/N=C/c2c[nH]c3ccccc23)NC1N1CCOCC1 (stereo not shown) [Compound XVII], the “TGI (total growth inhibition)” value (tumour cell lines) is given as 28.66 µM and the GI50 (tumour cell lines; read-out: GI50 (median growth inhibition)) is given as 6.15 µM.
In the case of CCCCSC1=NC(c2ccccc2)=C(C#N)C(Nc2ccccn2)N1 (stereo not shown) [Compound XIV], the IC50 (EGFRWT) is listed as 0.09 µM, the “activity relative to erlotinib” value [1] is listed as 4.5- to 8.4 fold and the “increase of caspase-3 level compared to the control” value (caspase-3 in HepG-2) is listed as 6.5 times. For the same compound, the IC50 (mutant EGFRT790M) was 4.03 µM.
